Laboratory results reported in patent publication US20100267561A1, “HERBICIDAL PYRIDAZINONE DERIVATIVES” (priority 2007, published 2010).

How the values were obtained:
Assay type in all cases: in vivo
[1] = test system: surinam grass (Brachiaria decumbens); assay: Test B pre-/postemergence plant response
In short: (§1)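 Seeds were sown and sprayed preemergence, while plants at 2 to 18 cm (1- to 4-leaf stage) got postemergence sprays. Compounds were formulated in a non-phytotoxic solvent mixture with surfactant. After 13 to 15 days in a greenhouse, injury was rated visually against untreated controls, 0 (no effect) to 100 (complete control).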

[2] = test system: johnsongrass (Sorghum halepense); assay: Test B pre-/postemergence plant response
In short: as §1

[3] = test system: canarygrass (Phalaris minor); assay: Test C pre-/postemergence plant response
In short: (§2)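 Scores (0 = no effect, 100 = complete control) are visual assessments made against control plants 15–25 days post-treatment in a controlled environment. Applications were preemergence and postemergence, with postemergence plants between 1- and 4-leaf stage.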

[4] = test system: green foxtail (Setaria viridis); assay: Test C pre-/postemergence plant response
In short: as §2

[5] = test system: blackgrass (Alopecurus myosuroides); assay: Test C pre-/postemergence plant response
In short: as §2

[6] = test system: downy bromegrass (Bromus tectorum); assay: Test C pre-/postemergence plant response
In short: as §2

[7] = test system: windgrass (Apera spica-venti); assay: Test C pre-/postemergence plant response
In short: as §2

[8] = test system: pigweed (Amaranthus retroflexus); assay: Test C pre-/postemergence plant response
In short: as §2

[9] = test system: wild mustard (Sinapis arvensis); assay: Test C pre-/postemergence plant response
In short: as §2

[10] = test system: annual bluegrass (Poa annua); assay: Test C pre-/postemergence plant response
In short: as §2

[11] = test system: spring barley (Hordeum vulgare); assay: Test C pre-/postemergence plant response
In short: as §2

[12] = test system: wild oat (Avena fatua); assay: Test C pre-/postemergence plant response
In short: as §2

[13] = test system: winter wheat (Triticum aestivum); assay: Test C pre-/postemergence plant response
In short: as §2

[14] = Preemergence, 31 g ai/ha, scale 0 to 100 (0 no effect, 100 complete control)
[15] = Preemergence, 62 g ai/ha, 0 to 100 scale, 0 no effect, 100 complete control
[16] = Preemergence, 8 g ai/ha, scale 0 to 100
[17] = Preemergence, 16 g ai/ha, scale 0 to 100
[18] = Preemergence, 8 g ai/ha, scale 0 to 100 (0 no effect, 100 complete control)
[19] = Preemergence, 16 g ai/ha, scale 0 to 100 (0 no effect, 100 complete control)
[20] = Preemergence, 62 g ai/ha, scale 0 to 100, 0 no effect, 100 complete control
[21] = 8 g ai/ha, postemergence, 0-100 scale
[22] = Postemergence, 16 g ai/ha, scale 0 to 100
[23] = Postemergence, 31 g ai/ha, scale 0 to 100, 0 no effect, 100 complete control
[24] = Postemergence, 62 g ai/ha, scale 0 to 100
[25] = Preemergence, 31 g ai/ha, 0 to 100 scale, 0 no effect, 100 complete control
[26] = Preemergence, 62 g ai/ha, scale 0 to 100
[27] = Postemergence, 8 g ai/ha, scale 0 to 100, 0 no effect, 100 complete control
[28] = Postemergence, 16 g ai/ha, scale 0 to 100, 0 no effect, 100 complete control
[29] = Postemergence, 62 g ai/ha, scale 0 to 100, 0 no effect, 100 complete control

C#CCOC(=O)Oc1cnn(C)c(=O)c1-n1nc(-c2ccc(Cl)cc2)cc1C [Compound 58]
Plant response rating, Surinam Grass [1, 14]: 98
Plant response rating, Surinam Grass [1, 15]: 100
Surinam Grass plant response rating [1, 16]: 95
Surinam Grass plant response rating [1, 17]: 98
Plant response rating, Johnsongrass [2, 14]: 40
Plant response rating, Johnsongrass [2, 15]: 60
Johnsongrass plant response rating [2, 16]: 0
Johnsongrass plant response rating [2, 17]: 0
Plant response rating, Canarygrass [3, 18]: 0
Plant response rating, Canarygrass [3, 19]: 60
Plant response rating, Canarygrass [3, 14]: 90
Plant response rating, Canarygrass [3, 20]: 95
Plant response rating, Foxtail, Green [4, 18]: 35
Plant response rating, Foxtail, Green [4, 19]: 98
Plant response rating, Foxtail, Green [4, 14]: 100
Plant response rating, Foxtail, Green [4, 20]: 100
Plant response rating, Blackgrass [5, 18]: 0
Plant response rating, Blackgrass [5, 19]: 65
Plant response rating, Blackgrass [5, 14]: 98
Plant response rating, Blackgrass [5, 20]: 100
Plant response rating, Bromegrass, Downy [6, 18]: 0
Plant response rating, Bromegrass, Downy [6, 19]: 15
Plant response rating, Bromegrass, Downy [6, 14]: 70
Plant response rating, Bromegrass, Downy [6, 20]: 75
Plant response rating, Windgrass [7, 18]: 0
Plant response rating, Windgrass [7, 19]: 20
Plant response rating, Windgrass [7, 14]: 50
Plant response rating, Windgrass [7, 20]: 70
Plant response rating, Pigweed [8, 18]: 0
Plant response rating, Pigweed [8, 20]: 0
Plant response rating, Mustard, Wild [9, 18]: 0
Plant response rating, Mustard, Wild [9, 19]: 0
Plant response rating, Mustard, Wild [9, 20]: 0
Plant response rating, Bluegrass [10, 18]: 0
Plant response rating, Bluegrass [10, 19]: 0
Plant response rating, Bluegrass [10, 14]: 0
Plant response rating, Bluegrass [10, 20]: 0
Plant response rating, Barley, Spring [11, 18]: 0
Plant response rating, Barley, Spring [11, 19]: 0
Plant response rating, Barley, Spring [11, 14]: 10
Plant response rating, Barley, Spring [11, 20]: 75
Plant response rating, Oat, Wild [12, 18]: 0
Plant response rating, Oat, Wild [12, 19]: 50
Plant response rating, Oat, Wild [12, 14]: 65
Plant response rating, Oat, Wild [12, 20]: 75
Plant response rating, Wheat, Winter [13, 18]: 0
Plant response rating, Wheat, Winter [13, 19]: 0
Plant response rating, Wheat, Winter [13, 14]: 60
Plant response rating, Wheat, Winter [13, 20]: 80

CCc1cc(-c2ccc(Cl)c(Cl)c2)nn1-c1c(O)cnn(C)c1=O [Compound 20]
Surinam Grass plant response rating [1, 21]: 60
Plant response rating, Surinam Grass [1, 22]: 90
Plant response rating, Surinam Grass [1, 23]: 90
Plant response rating, Surinam Grass [1, 24]: 100
Plant response rating, Surinam Grass [1, 19]: 20
Plant response rating, Surinam Grass [1, 25]: 50
Plant response rating, Surinam Grass [1, 26]: 100
Surinam Grass plant response rating [1, 16]: 0
Johnsongrass plant response rating [2, 21]: 30
Plant response rating, Johnsongrass [2, 22]: 75
Plant response rating, Johnsongrass [2, 23]: 100
Plant response rating, Johnsongrass [2, 24]: 100
Plant response rating, Johnsongrass [2, 19]: 50
Plant response rating, Johnsongrass [2, 25]: 75
Plant response rating, Johnsongrass [2, 26]: 95
Johnsongrass plant response rating [2, 16]: 0
Plant response rating, Canarygrass [3, 27]: 10
Plant response rating, Canarygrass [3, 28]: 35
Plant response rating, Canarygrass [3, 23]: 75
Plant response rating, Canarygrass [3, 29]: 95
Plant response rating, Foxtail, Green [4, 27]: 0
Plant response rating, Foxtail, Green [4, 28]: 70
Plant response rating, Foxtail, Green [4, 23]: 80
Plant response rating, Foxtail, Green [4, 29]: 98
Plant response rating, Blackgrass [5, 27]: 0
Plant response rating, Blackgrass [5, 28]: 35
Plant response rating, Blackgrass [5, 23]: 60
Plant response rating, Blackgrass [5, 29]: 75
Plant response rating, Bromegrass, Downy [6, 27]: 0
Plant response rating, Bromegrass, Downy [6, 28]: 0
Plant response rating, Bromegrass, Downy [6, 23]: 0
Plant response rating, Bromegrass, Downy [6, 29]: 10
Plant response rating, Windgrass [7, 27]: 0
Plant response rating, Windgrass [7, 28]: 0
Plant response rating, Windgrass [7, 23]: 50
Plant response rating, Windgrass [7, 29]: 75
Plant response rating, Pigweed [8, 27]: 0
Plant response rating, Pigweed [8, 28]: 0
Plant response rating, Pigweed [8, 23]: 0
Plant response rating, Pigweed [8, 29]: 0
Plant response rating, Mustard, Wild [9, 27]: 0
Plant response rating, Mustard, Wild [9, 28]: 0
Plant response rating, Mustard, Wild [9, 23]: 0
Plant response rating, Mustard, Wild [9, 29]: 0
Plant response rating, Bluegrass [10, 27]: 0
Plant response rating, Bluegrass [10, 28]: 0
Plant response rating, Bluegrass [10, 23]: 0
Plant response rating, Bluegrass [10, 29]: 0
Plant response rating, Barley, Spring [11, 27]: 0
Plant response rating, Barley, Spring [11, 28]: 25
Plant response rating, Barley, Spring [11, 23]: 25
Plant response rating, Barley, Spring [11, 29]: 50
Plant response rating, Oat, Wild [12, 27]: 10
Plant response rating, Oat, Wild [12, 28]: 98
Plant response rating, Oat, Wild [12, 23]: 100
Plant response rating, Oat, Wild [12, 29]: 100
Plant response rating, Wheat, Winter [13, 27]: 0
Plant response rating, Wheat, Winter [13, 28]: 20
Plant response rating, Wheat, Winter [13, 23]: 30
Plant response rating, Wheat, Winter [13, 29]: 60

CCc1cc(-c2ccc(Cl)cc2)nn1-c1c(OC(=O)OC(C)C)cnn(C)c1=O [Compound 41]
Surinam Grass plant response rating [1, 21]: 100
Plant response rating, Surinam Grass [1, 22]: 100
Plant response rating, Surinam Grass [1, 29]: 100
Plant response rating, Surinam Grass [1, 19]: 40
Plant response rating, Surinam Grass [1, 14]: 55
Plant response rating, Surinam Grass [1, 15]: 100
Surinam Grass plant response rating [1, 16]: 0
Johnsongrass plant response rating [2, 21]: 50
Plant response rating, Johnsongrass [2, 22]: 50
Plant response rating, Johnsongrass [2, 23]: 60
Plant response rating, Johnsongrass [2, 29]: 75
Plant response rating, Johnsongrass [2, 19]: 65
Plant response rating, Johnsongrass [2, 25]: 70
Plant response rating, Johnsongrass [2, 26]: 95
Johnsongrass plant response rating [2, 16]: 20
Plant response rating, Canarygrass [3, 18]: 50
Plant response rating, Canarygrass [3, 19]: 80
Plant response rating, Canarygrass [3, 14]: 98
Plant response rating, Canarygrass [3, 20]: 100
Plant response rating, Foxtail, Green [4, 18]: 98
Plant response rating, Foxtail, Green [4, 19]: 100
Plant response rating, Foxtail, Green [4, 14]: 100
Plant response rating, Foxtail, Green [4, 20]: 100
Plant response rating, Blackgrass [5, 18]: 100
Plant response rating, Blackgrass [5, 19]: 100
Plant response rating, Blackgrass [5, 14]: 100
Plant response rating, Blackgrass [5, 20]: 100
Plant response rating, Bromegrass, Downy [6, 18]: 0
Plant response rating, Bromegrass, Downy [6, 19]: 50
Plant response rating, Bromegrass, Downy [6, 14]: 50
Plant response rating, Bromegrass, Downy [6, 20]: 80
Plant response rating, Windgrass [7, 18]: 65
Plant response rating, Windgrass [7, 19]: 98
Plant response rating, Windgrass [7, 14]: 100
Plant response rating, Windgrass [7, 20]: 100
Plant response rating, Pigweed [8, 18]: 0
Plant response rating, Pigweed [8, 19]: 0
Plant response rating, Pigweed [8, 14]: 0
Plant response rating, Pigweed [8, 20]: 0
Plant response rating, Mustard, Wild [9, 18]: 0
Plant response rating, Mustard, Wild [9, 14]: 0
Plant response rating, Mustard, Wild [9, 20]: 0
Plant response rating, Bluegrass [10, 18]: 0
Plant response rating, Bluegrass [10, 19]: 0
Plant response rating, Barley, Spring [11, 18]: 0
Plant response rating, Barley, Spring [11, 19]: 65
Plant response rating, Barley, Spring [11, 14]: 75
Plant response rating, Barley, Spring [11, 20]: 90
Plant response rating, Oat, Wild [12, 18]: 65
Plant response rating, Oat, Wild [12, 19]: 75
Plant response rating, Oat, Wild [12, 14]: 95
Plant response rating, Oat, Wild [12, 20]: 95
Plant response rating, Wheat, Winter [13, 18]: 0
Plant response rating, Wheat, Winter [13, 19]: 40
Plant response rating, Wheat, Winter [13, 14]: 60
Plant response rating, Wheat, Winter [13, 20]: 98
